In patent publication US20250059074A1, “ANTIMICROBIAL SYSTEM AND METHOD” (KEMIRA OYJ, priority 2021, published 2025):

System: Pseudoxanthomonas taiwanensis biofilm
Assay: Biofilm test in 96-microwell plates with peg lids, Crystal Violet quantification
Type: cell-based
Settings: for Impact (biofilm reduction percentage vs no added chemicals): 45° C., 150 rpm
Text: Authentic cooling water was obtained from a cooling water system in Germany. Proteobacteria are commonly found from cooling waters (Water Research 159 (2019): 464-479). In the biofilm-experiments the test water was spiked with Pseudoxanthomonas taiwanensis, a biofilm-forming species belonging to the phylum Proteobacter. Biofilm tests were done in simulated cooling water, SCW (prepared according to Marziya Rizvi et al., Nature Scientific Reports | (2021) 11:8353) using 96-microwell plate wells with peg lids (Thermo Fischer Scientific Inc., USA). Plates were incubated at 45° C. with a rotary shaking (150 rpm) providing high flow in each well. Wells of 96-microwell plates with peg-lids were filled with 10% authentic cooling water, 89% SCW and 1% of pure culture of Pseudoxanthomonas taiwanensis. Biofilm was grown at 45° C. with a rotary shaking (150 rpm) for 24 hours without addition of any chemical compound to be tested. After 24 hours from starting the test, the wells were emptied and a fresh solution comprising 10% authentic cooling water, 89% SCW and 1% of pure culture of Pseudoxanthomonas taiwanensis with different amounts of chemical compounds to be tested were added and the original peg-lid was placed back in place. After an additional 24 hours the wells were emptied and the biofilm amount on the pegs was quantified. The amount of biofilm formed on the peg surfaces was quantified with a staining solution by adding 200 μl of 1% Crystal Violet (Merck Millipore KGaA, Germany) in methanol to each well in a clean 96-well plate and placing the biofilm-containing peg-lid on it. After 3 minutes the wells were emptied and the wells and pegs were rinsed 3 times with tap water. Finally the peg-lid was placed in a clean 96-well plate, the attached Crystal Violet was dissolved into ethanol and the absorbance at 595 nm was measured. All parts per million (ppm) amounts given in Example 1 are as active ingredients. The Impact values are calculated as biofilm reduction percentages based on a comparison with no added chemicals. A positive value indicates a reduction in amount of biofilm whereas a negative value indicates an increase in the amount of biofilm. […] Biofilm was stained and quantified by absorbance measurement. Dosages are given as active ingredients.

| SMILES | Impact (biofilm reduction percentage vs no added chemicals) (Sodium hypochlorite 2 ppm alone, authentic cooling water+SCW+P. taiwanensis, 24 h on pre-grown biofilm, negative = increase) | Impact (biofilm reduction percentage vs no added chemicals) (Sodium hypochlorite 4 ppm alone, 24 h, negative = increase) | Impact (biofilm reduction percentage vs no added chemicals) (Sodium hypochlorite 8 ppm alone, 24 h, negative = increase) | Impact (biofilm reduction percentage vs no added chemicals) (Sodium hypochlorite 12 ppm alone, 24 h, negative = increase) | Impact (biofilm reduction percentage vs no added chemicals) (Sodium hypochlorite 16 ppm alone, 24 h) | Dosage required to reach noticeable biofilm reduction efficacy (Sodium hypochlorite on its own, as active compound) | Impact (biofilm reduction percentage vs no added chemicals) (Compound A 0.15 ppm alone, 24 h, negative = increase) | Impact (biofilm reduction percentage vs no added chemicals) (Compound A 0.30 ppm alone, 24 h) | Impact (biofilm reduction percentage vs no added chemicals) (Compound A 0.45 ppm alone, 24 h) |
| --- | --- | --- | --- | --- | --- | --- | --- | --- | --- |
| OCl [Sodium hypochlorite] | −30% | −27% | −25% | −10% | 6% | 16 ppm |  |  |  |
| Cc1ccc(S(=O)(=O)C=CC#N)cc1 [Compound A, 3-[(4-methylphenyl)sulphonyl]-2-propenenitrile] |  |  |  |  |  |  | −19% | 2% | 8% |
